# Assay results from patent publication US11385229B2, “Amplification technology using dual enzyme cascade detection” (The Regents of the University of California, priority 2017, dated 2022).
# Columns and labels:
# [1] = system: E. coli clinical isolates; test: standard susceptibility testing (disc diffusion); as to Ampicillin susceptibility: key: S, susceptible; R, resistant; as to Cephalexin susceptibility: key: S, susceptible; R, resistant; format: cell-based; conditions: for standard susceptibility testing: E. coli isolate SF334 (blaTEM-1)
# [2] = system: K. pneumoniae clinical isolates; test: standard susceptibility testing (disc diffusion); format: cell-based; also: key: S, susceptible; R, resistant
# [3] = system: E. coli isolated from CA-UTI urine samples; test: susceptibility testing of E. coli cultured from CA-UTI urine samples; format: cell-based; conditions: 23 of 34 E. coli from CA-UTI samples
# Description: In order to establish the threshold Δλ405 of DETECT, that delineates β-lactam-susceptible from β-lactam-resistant urine samples, we simultaneously analyzed urine samples by traditional microbiology techniques as a standard for comparison (raw Δλ405 of DETECT values shown in Table S1). As such, urine samples were cultured for identification of E. coli, and E. coli isolates were tested for susceptibility to ampicillin and cephalexin. Samples were separated for analyses based on susceptibility or resistance to these agents, and an average Δλ405 value was calculated for each group. The average Δλ405 values corresponding to β-lactam-resistant and β-lactam-susceptible samples are shown in FIG. 5B, where the average Δλ405 of samples defined by traditional susceptibility analyses as resistant to ampicillin or cephalexin was 1.026, and the average Δλ405 in samples containing susceptible E. coli was 0.2990 (p=0.00048, two-tailed t-test). Finally, the threshold value was defined as 0.616, three standard deviations greater than the average Δλ405 of β-lactam-susceptible isolates. Therefore, samples with Δλ405>0.616 were defined as “positive” by DETECT (or resistant to early-generation β-lactams), and samples with Δλ405<0.616 were defined as “negative” by DETECT (or susceptible to β-lactams), the latter of which would qualify for treatment with an early-generation β-lactam. […]
# [4] = system: TEM-1-producing E. coli clinical isolate SF334; format: cell-based; conditions: E. coli isolate SF334 (TEM-1)
# Description: Whole-cell suspensions of SF334 were prepared as described above. First, we confirmed β-lactamase activity in the TEM-1-producing clinical isolate by incubating 10^6 CFU of SF334 with the DETECT components (FIG. 4A), then collecting absorbance values at 405 nm after 45, 60, 120, and 180 min of incubation. […] The analogous experiment was performed with nitrocefin, where whole-cell suspensions of SF334 and SF505 were incubated with nitrocefin. As indicated in the literature, samples were incubated with nitrocefin for up to only 30 min to minimize background signal associated with non-selective hydrolysis^14.
# Subsequent studies were performed to establish the detection limit of DETECT relative to nitrocefin, by serially diluting isolate SF334 in 100-fold increments. […]
# (A) Schematic representation of the experiments performed with E. coli clinical isolates, where bacterial suspensions were incubated with DETECT components thiophenol-β-lac, disulfide-protected papain, and BAPA in a 96-well plate. Following 1 h of incubation, the sample wells were analyzed with a microplate reader and the absorbance at 405 nm was collected. […] (C) Plot displaying the signal outputs generated by DETECT in the presence of varying quantities of SF334, which was carried out to define the signal threshold of DETECT compared to the current standard, nitrocefin. […]
# [5] = target: recombinant TEM-1 β-lactamase (Escherichia coli, UniProt P62593); conditions: recombinant TEM-1, absorbance 486 nm
# recombinant TEM-1 β-lactamase, sequence (P62593 24-286 limits assumed): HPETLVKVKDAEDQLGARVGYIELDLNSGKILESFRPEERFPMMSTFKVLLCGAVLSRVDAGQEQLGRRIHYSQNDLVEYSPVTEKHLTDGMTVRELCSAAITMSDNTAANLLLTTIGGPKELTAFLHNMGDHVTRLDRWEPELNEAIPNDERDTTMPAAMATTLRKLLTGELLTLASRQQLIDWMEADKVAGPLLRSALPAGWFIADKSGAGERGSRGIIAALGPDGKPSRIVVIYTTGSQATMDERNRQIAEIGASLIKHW
# Description: To verify the targeting capacity and establish the amplification capacity of thiophenol-β-lac, we first targeted the β-lactamase TEM-1, which mediates resistance to β-lactam antibiotics, such as ampicillin We compared the sensitivity of DETECT against the standard chromogenic β-lactamase probe nitrocefin (FIG. 3)^19. Recombinant TEM-1 activity was quantified by measuring the formation of the hydrolytic chromogenic products from DETECT or nitrocefin in a time-dependent manner with a microplate reader (DETECT hydrolytic product=405 nm, and nitrocefin hydrolytic product=486 nm).
# (B) Time-dependent plot of β-lactamase activity assay performed with DETECT, where varied concentrations of recombinant TEM-1 were incubated with the DETECT system in a 96-well plate for 90 min. The absorbance at 405 nm was collected in 5 min intervals and plotted against time. (C) Photograph of color change caused from DETECT amplification in wells where TEM-1 was present at increasing concentrations from right to left. The rightmost well is a control well where all the components were incubated in the absence of TEM-1. (D) Time-dependent biochemical experiment where varied concentrations of TEM-1 were incubated with the standard β-lactamase probe nitrocefin in a 96-well plate, and the respective absorbance values were collected on a microplate reader (486 nm). […]
# papain = papain (Carica papaya, UniProt P00784); conditions: BAPA as papain substrate; cited from earlier work
# papain, sequence (P00784 134-345): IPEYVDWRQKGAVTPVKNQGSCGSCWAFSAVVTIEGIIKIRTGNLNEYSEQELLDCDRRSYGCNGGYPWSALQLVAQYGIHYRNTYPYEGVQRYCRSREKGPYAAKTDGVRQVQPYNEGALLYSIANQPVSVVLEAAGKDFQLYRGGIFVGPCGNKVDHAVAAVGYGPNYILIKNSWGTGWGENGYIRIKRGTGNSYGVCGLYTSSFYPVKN
# [6] = E. coli isolate BE30, β-lactamase gene SHV-1
# [7] = E. coli isolate BE115, β-lactamase gene OXA-1
# [8] = E. coli isolate BE372, β-lactamase gene TEM-1 (1b)
# [9] = E. coli isolate BE527, β-lactamase gene SHV-1
# [10] = E. coli isolate BE1004, β-lactamase gene TEM-1 (1c)
# [11] = E. coli isolate BE1173, β-lactamase gene TEM-1 (1b)
# [12] = E. coli isolate BE1335, β-lactamase gene SHV-1
# [13] = E. coli isolate BR2, β-lactamase gene KPC-2
# [14] = E. coli isolate SF105, β-lactamase gene TEM-1
# [15] = E. coli isolate SF141, β-lactamase gene CMY-2
# [16] = E. coli isolate SF148, β-lactamase gene CTX-M-14
# [17] = E. coli isolate SF207, β-lactamase gene CMY-2
# [18] = E. coli isolate SF384, β-lactamase gene ND
# [19] = E. coli isolate SF410, β-lactamase gene CTX-M-15
# [20] = E. coli isolate SF487, β-lactamase gene CTX-M-14
# [21] = E. coli isolate SF674, β-lactamase gene CTX-M-15
# [22] = K. pneumoniae isolate ATCC 700603, β-lactamase gene SHV-18 (ESBL)
# [23] = K. pneumoniae isolate BR1, β-lactamase gene SHV-185
# [24] = K. pneumoniae isolate BR27, β-lactamase gene SHV-11
# [25] = K. pneumoniae isolate BR28, β-lactamase gene KPC-2, SHV-11
# [26] = K. pneumoniae isolate BR45, β-lactamase gene SHV-38/168
# [27] = K. pneumoniae isolate BR50, β-lactamase gene SHV-62
# [28] = K. pneumoniae isolate BR52, β-lactamase gene SHV-132
# [29] = K. pneumoniae isolate BR313, β-lactamase gene SHV-83/187
# [30] = K. pneumoniae isolate SF412, β-lactamase gene ND
# [31] = K. pneumoniae isolate SF519, β-lactamase gene ND
smiles,measurement,setting,value
"CC1=C(C(=O)O)N2C(=O)[C@@H](NC(=O)[C@H](N)c3ccccc3)[C@H]2SC1 [Cephalexin, cephalexin]",Cephalexin susceptibility,[1]; [6],S
same,Cephalexin susceptibility,[1]; [7],S
same,Cephalexin susceptibility,[1]; [8],R
same,Cephalexin susceptibility,[1]; [9],S
same,Cephalexin susceptibility,[1]; [10],S
same,Cephalexin susceptibility,[1]; [11],S
same,Cephalexin susceptibility,[1]; [12],S
same,Cephalexin susceptibility,[1]; [13],R
same,Cephalexin susceptibility,[1]; [14],R
same,Cephalexin susceptibility,[1]; [15],R
same,Cephalexin susceptibility,[1]; [16],R
same,Cephalexin susceptibility,[1]; [17],R
same,standard susceptibility testing,[1],resistance
same,Cephalexin susceptibility,[1]; [18],S
same,Cephalexin susceptibility,[1]; [19],R
same,Cephalexin susceptibility,[1]; [20],R
same,Cephalexin susceptibility,[1]; [21],R
same,Cephalexin susceptibility,[2]; [22],R
same,Cephalexin susceptibility,[2]; [23],S
same,Cephalexin susceptibility,[2]; [24],S
same,Cephalexin susceptibility,[2]; [25],R
same,Cephalexin susceptibility,[2]; [26],S
same,Cephalexin susceptibility,[2]; [27],S
same,Cephalexin susceptibility,[2]; [28],S
same,Cephalexin susceptibility,[2]; [29],S
same,Cephalexin susceptibility,[2]; [30],S
same,Cephalexin susceptibility,[2]; [31],S
"CC1(C)S[C@@H]2[C@H](NC(=O)[C@H](N)c3ccccc3)C(=O)N2[C@H]1C(=O)O [Ampicillin, ampicillin]",Ampicillin susceptibility,[1]; [6],R
same,Ampicillin susceptibility,[1]; [7],R
same,Ampicillin susceptibility,[1]; [8],R
same,Ampicillin susceptibility,[1]; [9],R
same,Ampicillin susceptibility,[1]; [10],R
same,Ampicillin susceptibility,[1]; [11],R
same,Ampicillin susceptibility,[1]; [12],R
same,Ampicillin susceptibility,[1]; [13],R
same,Ampicillin susceptibility,[1]; [14],R
same,Ampicillin susceptibility,[1]; [15],R
same,Ampicillin susceptibility,[1]; [16],R
same,Ampicillin susceptibility,[1]; [17],R
same,standard susceptibility testing,[1],resistance
same,Ampicillin susceptibility,[1]; [18],S
same,Ampicillin susceptibility,[1]; [19],R
same,Ampicillin susceptibility,[1]; [20],R
same,Ampicillin susceptibility,[1]; [21],R
same,Ampicillin susceptibility,[2]; [22],R
same,Ampicillin susceptibility,[2]; [23],R
same,Ampicillin susceptibility,[2]; [24],R
same,Ampicillin susceptibility,[2]; [25],R
same,Ampicillin susceptibility,[2]; [26],R
same,Ampicillin susceptibility,[2]; [27],R
same,Ampicillin susceptibility,[2]; [28],R
same,Ampicillin susceptibility,[2]; [29],R
same,Ampicillin susceptibility,[2]; [30],S
same,Ampicillin susceptibility,[2]; [31],S
same,E. coli isolates susceptible,[3],68%
O=C(Cc1cccs1)N[C@@H]1C(=O)N2C(C(=O)O)=C(/C=C/c3ccc([N+](=O)[O-])cc3[N+](=O)[O-])CS[C@H]12 [nitrocefin],suspension of SF334 needed to identify β-lactamase activity above background,[4],10^7 CFU/mL
same,limit of detection of TEM-1,[5],4 nM
"N=C(N)NCCC[C@H](NC(=O)c1ccccc1)C(=O)Nc1ccc([N+](=O)[O-])cc1 [BAPA, N-benzoyl-L-arginine-p-nitroaniline]",KCAT value with papain,papain,0.7 to 0.8 s⁻¹
